# Measured values from BindingDB's records for doi:10.1021/jm00099a006 (Merck Research Laboratories, 1992).
# Molecular target: T1, Gag-Pol polyprotein [588-1027]/[588-1147] (Human immunodeficiency virus 1, UniProt P04585)
# T1 construct: 588-1027; 588-1147
# Experiment: HIV-1 RT Assay
# Conditions: pH 8.2
row,SMILES,IC50 [µM]
1,"O=C1c2ccccc2C(=O)N1CCc1cccnc1O [2-[2-(2-oxo-1,2-dihydropyridin-3-yl)ethyl]-2,3-dihydro-1H-isoindole-1,3-dione]",> 300
2,"CCc1cc(C(=O)CN2C(=O)c3ccccc3C2=O)c(OC)nc1C [2-[2-(5-ethyl-2-methoxy-6-methylpyridin-3-yl)-2-oxoethyl]-2,3-dihydro-1H-isoindole-1,3-dione]",> 300
3,"CCc1cc(CCN2C(=O)c3ccccc3C2=O)c(OC)nc1C [2-[2-(5-ethyl-2-methoxy-6-methylpyridin-3-yl)ethyl]-2,3-dihydro-1H-isoindole-1,3-dione]",6.2
4,"CCc1cc(C(O)CN2C(=O)c3ccccc3C2=O)c(O)nc1C (stereo not drawn) [2-[2-(5-ethyl-6-methyl-2-oxo-1,2-dihydropyridin-3-yl)-2-hydroxyethyl]-2,3-dihydro-1H-isoindole-1,3-dione]",> 300
5,"CCc1cc(C(O)CN2C(=O)c3ccccc3C2=O)c(OC)nc1C (stereo not drawn) [2-[2-(5-ethyl-2-methoxy-6-methylpyridin-3-yl)-2-hydroxyethyl]-2,3-dihydro-1H-isoindole-1,3-dione]",> 300
6,"CCc1cc(C(=O)CN2C(=O)c3ccccc3C2=O)c(=O)[nH]c1C [2-[2-(5-ethyl-6-methyl-2-oxo-1,2-dihydropyridin-3-yl)-2-oxoethyl]-2,3-dihydro-1H-isoindole-1,3-dione]",> 300
7,"CCc1cc(CCCN2C(=O)c3ccccc3C2=O)c(OC)nc1C [2-[3-(5-ethyl-2-methoxy-6-methylpyridin-3-yl)propyl]-2,3-dihydro-1H-isoindole-1,3-dione]",> 300
8,"CCc1cc(CN2C(=O)c3ccccc3C2=O)c(OC)nc1C [2-[(5-ethyl-2-methoxy-6-methylpyridin-3-yl)methyl]-2,3-dihydro-1H-isoindole-1,3-dione]",16
